Laboratory results published in patent publication US10052293B2, “Curcumin infused milk beverage and a process for the preparation thereof” (priority 2016, dated 2018).

Tests used:
[1] = pH of Curcumin dissolved in water; format: physicochemical
Procedure: The prior art as described in above paragraphs clearly points that Curcumin is unstable in an alkaline solution and loses its golden yellow colour above a pH of 7.5. When pure Curcumin (95%) is dissolved in water, it gives a pH of 6.1. Even at a concentration of 30% solution of Curcumin, prepared by 30 gms of Curcumin in 70 gm hot water, kept in water bath at 55 degrees Celsius for 10 minutes and cooled to 25 degrees Celsius, it has an acidic pH. This Acidic pH of Curcumin is not suitable for making flavoured milk products. Any ingredient having pH less than 6.4 adversely affect milk proteins. The present invention solves this problem by optimizing the exact pH of Curcumin infused milk beverage so that the properties of beverage are preserved and good dispersibility and stability of Curcumin is obtained in the final composition.

[2] = Water solubility of Curcumin; format: physicochemical; details: 95% pure Curcumin
Procedure: The particle size of the Curcumin is about 125 micrometers and 95% of Curcumin can pass through 125 micrometers sieve and rest 5% is larger than 125 micrometers. In the final product, the Curcumin concentration is kept at a low concentration of 0.05% (wt/wt percentage for a batch). The concentration of Curcumin can go up to 0.15%. (wt/wt percentage for a batch) for particular milk beverage products. Thus, in an exemplary situation a 160 ml package of this milk beverage has approximately 80 mg of Curcumin and which can go up to 240 mg as required for ingestion.

pH ([1]; 30% solution: 30 gms Curcumin in 70 gm hot water, 55 degrees Celsius 10 minutes, cooled to 25 degrees Celsius): acidic pH
pH ([1]; pure Curcumin (95%) dissolved in water): 6.1
water solubility [2]: water insoluble
Compound: COc1cc(/C=C/C(=O)CC(=O)/C=C/c2ccc(O)c(OC)c2)ccc1O [Curcumin, diferuloylmethane]
